Assay results as given in ChEMBL document CHEMBL1201862, “PubChem BioAssay data set” (2004).
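The compound was tested at five concentrations on cells cultured in 96-well plates, with a 48-hour exposure period. GI50 = concentration required for 50% inhibition of growth.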 Calls of active or inactive are those of the source. Cut-off read from the data, not from the text of the source: active = GI50 up to about 1.1 µM and inactive = higher.

Legend:
Experiment in all cases: inhibition of tumour cell growth, NCI panel, 48 h
DMS-273 = tested on: DMS-273
HOP-92 = tested on: HOP-92
IGROV-1 = tested on: IGROV-1
SK-MEL-2 = tested on: SK-MEL-2
NCI-H460 = tested on: NCI-H460
SN12C = tested on: SN12C
RPMI-8226 = tested on: RPMI-8226
SF-268 = tested on: SF-268
SNB-19 = tested on: SNB-19
LXFL 529 = tested on: LXFL 529
NCI-H226 = tested on: NCI-H226
MOLT-4 = tested on: MOLT-4
A498 = tested on: A498
CCRF-CEM = tested on: CCRF-CEM
SK-MEL-5 = tested on: SK-MEL-5
TK-10 = tested on: TK-10
K562 = tested on: K562
M19-MEL = tested on: M19-MEL
SK-OV-3 = tested on: SK-OV-3
UO-31 = tested on: UO-31
Malme-3M = tested on: Malme-3M
SK-MEL-28 = tested on: SK-MEL-28
SW-620 = tested on: SW-620
NCI-H23 = tested on: NCI-H23
SNB-75 = tested on: SNB-75
KM-20L2 = tested on: KM-20L2
SF-295 = tested on: SF-295
COLO 205 = tested on: COLO 205
DMS-114 = tested on: DMS-114
UACC-257 = tested on: UACC-257
ACHN = tested on: ACHN
HCC 2998 = tested on: HCC 2998
DLD-1 = tested on: DLD-1
XF498 = tested on: XF498
M14 = tested on: M14
HT-29 = tested on: HT-29
KM12 = tested on: KM12
OVCAR-3 = tested on: OVCAR-3
SNB-78 = tested on: SNB-78
NCI-H522 = tested on: NCI-H522
SF-539 = tested on: SF-539
786-0 = tested on: 786-0
LOX IMVI = tested on: LOX IMVI
EKVX = tested on: EKVX
CAKI-1 = tested on: CAKI-1
OVCAR-5 = tested on: OVCAR-5
HL-60 = tested on: HL-60
OVCAR-4 = tested on: OVCAR-4
OVCAR-8 = tested on: OVCAR-8
UACC-62 = tested on: UACC-62
A549 = tested on: A549
HCT-15 = tested on: HCT-15
RXF 393 = tested on: RXF 393
HOP-62 = tested on: HOP-62
HOP-18 = tested on: HOP-18
SR = tested on: SR
U-251 = tested on: U-251
HCT-116 = tested on: HCT-116

Measured: GI50

COC(=O)C(C#N)=C1c2ccccc2Oc2ccccc21
> 100 µM: HCT-15
inactive: DMS-273 > 100 µM | HOP-92 30.5 µM | IGROV-1 64.3 µM | SK-MEL-2 > 100 µM | NCI-H460 > 100 µM | SN12C 38.9 µM | RPMI-8226 18.8 µM | SF-268 63 µM | SNB-19 41.6 µM | LXFL 529 29.8 µM | NCI-H226 65.5 µM | MOLT-4 35.4 µM | A498 > 100 µM | CCRF-CEM 32.4 µM | SK-MEL-5 33.9 µM | TK-10 > 100 µM | K562 31.5 µM | M19-MEL 60.1 µM | SK-OV-3 42.1 µM | UO-31 > 100 µM | Malme-3M 93.3 µM | SK-MEL-28 56.6 µM | SW-620 43.2 µM | NCI-H23 56.9 µM | SNB-75 42.2 µM | KM-20L2 91.2 µM | SF-295 46.5 µM | COLO 205 92 µM | DMS-114 32.7 µM | UACC-257 > 100 µM | ACHN 66.7 µM | HCC 2998 98.9 µM | DLD-1 > 100 µM | XF498 > 100 µM | M14 53.8 µM | HT-29 39.3 µM | KM12 > 100 µM | OVCAR-3 21.5 µM | SNB-78 28.6 µM | NCI-H522 24.9 µM | SF-539 75.7 µM | 786-0 63.7 µM | LOX IMVI > 100 µM | EKVX > 100 µM | CAKI-1 > 100 µM | OVCAR-5 > 100 µM | HL-60 20.8 µM | OVCAR-4 43.8 µM | OVCAR-8 43.4 µM | UACC-62 35.7 µM | A549 > 100 µM | RXF 393 38.5 µM | HOP-62 > 100 µM

Cc1ccc([N+](=O)[O-])cc1NC(=O)C(=O)Cc1occc(=O)c1O
inactive: HOP-92 > 100 µM | IGROV-1 > 100 µM | NCI-H460 > 100 µM | SN12C > 100 µM | RPMI-8226 > 100 µM | SF-268 > 100 µM | SNB-19 > 100 µM | NCI-H226 > 100 µM | A498 > 100 µM | CCRF-CEM > 100 µM | SK-MEL-5 > 100 µM | TK-10 > 100 µM | K562 > 100 µM | M19-MEL > 100 µM | SK-OV-3 > 100 µM | UO-31 > 100 µM | SK-MEL-28 > 100 µM | SW-620 > 100 µM | SNB-75 > 100 µM | KM-20L2 > 100 µM | SF-295 > 100 µM | COLO 205 > 100 µM | DMS-114 > 100 µM | ACHN > 100 µM | HCC 2998 > 100 µM | HOP-18 > 100 µM | DLD-1 > 100 µM | XF498 > 100 µM | SR > 100 µM | HT-29 > 100 µM | KM12 > 100 µM | OVCAR-3 > 100 µM | NCI-H522 > 100 µM | U-251 > 100 µM | SF-539 > 100 µM | 786-0 > 100 µM | LOX IMVI > 100 µM | EKVX > 100 µM | CAKI-1 > 100 µM | OVCAR-5 > 100 µM | HL-60 > 100 µM | OVCAR-8 > 100 µM | UACC-62 > 100 µM | A549 > 100 µM | RXF 393 > 100 µM | HOP-62 > 100 µM
> 100 µM: HCT-15

C1=Nc2ccccc2Cn2nncc21
inactive: DMS-273 > 10 µM | HOP-92 54.7 µM | IGROV-1 67.5 µM | SK-MEL-2 78.2 µM | NCI-H460 > 100 µM | SN12C > 100 µM | RPMI-8226 > 100 µM | SF-268 > 100 µM | SNB-19 > 100 µM | LXFL 529 98.2 µM | NCI-H226 > 100 µM | MOLT-4 > 100 µM | CCRF-CEM 49.9 µM | SK-MEL-5 > 10 µM | TK-10 > 100 µM | K562 35.2 µM | M19-MEL > 100 µM | SK-OV-3 > 100 µM | UO-31 89.1 µM | Malme-3M 63 µM | SK-MEL-28 80.7 µM | SW-620 34 µM | HCT-116 35.7 µM | NCI-H23 > 100 µM | KM-20L2 > 100 µM | COLO 205 > 100 µM | ACHN > 100 µM | HCC 2998 99.5 µM | HOP-18 74.8 µM | DLD-1 57.3 µM | XF498 > 100 µM | SR 60.3 µM | M14 67.3 µM | HT-29 45.6 µM | KM12 47.1 µM | OVCAR-3 > 100 µM | NCI-H522 32.7 µM | U-251 26 µM | SF-539 28.6 µM | LOX IMVI 46.9 µM | EKVX 98.2 µM | CAKI-1 29.9 µM | OVCAR-5 > 100 µM | HL-60 25.4 µM | OVCAR-4 > 100 µM | OVCAR-8 > 100 µM | UACC-62 23 µM | A549 > 100 µM | RXF 393 > 100 µM | HOP-62 > 100 µM
41.8 µM: HCT-15
